Experimental findings from patent US11001590B2, “Pyrazolopyrimidine derivatives” (BAYER ANIMAL HEALTH GMBH, priority 2016, dated 2021) are described below.

A word on the EC50: it is the concentration giving half of the maximal effect. What is called mortality is the share of the test organisms that died. One may read the chromatographic logP as a lipophilicity value derived from retention on a column. High values mean higher lipophilicity, low ones lower lipophilicity.

Chain of C. elegans Slo-1a (Q95V25 whole entry): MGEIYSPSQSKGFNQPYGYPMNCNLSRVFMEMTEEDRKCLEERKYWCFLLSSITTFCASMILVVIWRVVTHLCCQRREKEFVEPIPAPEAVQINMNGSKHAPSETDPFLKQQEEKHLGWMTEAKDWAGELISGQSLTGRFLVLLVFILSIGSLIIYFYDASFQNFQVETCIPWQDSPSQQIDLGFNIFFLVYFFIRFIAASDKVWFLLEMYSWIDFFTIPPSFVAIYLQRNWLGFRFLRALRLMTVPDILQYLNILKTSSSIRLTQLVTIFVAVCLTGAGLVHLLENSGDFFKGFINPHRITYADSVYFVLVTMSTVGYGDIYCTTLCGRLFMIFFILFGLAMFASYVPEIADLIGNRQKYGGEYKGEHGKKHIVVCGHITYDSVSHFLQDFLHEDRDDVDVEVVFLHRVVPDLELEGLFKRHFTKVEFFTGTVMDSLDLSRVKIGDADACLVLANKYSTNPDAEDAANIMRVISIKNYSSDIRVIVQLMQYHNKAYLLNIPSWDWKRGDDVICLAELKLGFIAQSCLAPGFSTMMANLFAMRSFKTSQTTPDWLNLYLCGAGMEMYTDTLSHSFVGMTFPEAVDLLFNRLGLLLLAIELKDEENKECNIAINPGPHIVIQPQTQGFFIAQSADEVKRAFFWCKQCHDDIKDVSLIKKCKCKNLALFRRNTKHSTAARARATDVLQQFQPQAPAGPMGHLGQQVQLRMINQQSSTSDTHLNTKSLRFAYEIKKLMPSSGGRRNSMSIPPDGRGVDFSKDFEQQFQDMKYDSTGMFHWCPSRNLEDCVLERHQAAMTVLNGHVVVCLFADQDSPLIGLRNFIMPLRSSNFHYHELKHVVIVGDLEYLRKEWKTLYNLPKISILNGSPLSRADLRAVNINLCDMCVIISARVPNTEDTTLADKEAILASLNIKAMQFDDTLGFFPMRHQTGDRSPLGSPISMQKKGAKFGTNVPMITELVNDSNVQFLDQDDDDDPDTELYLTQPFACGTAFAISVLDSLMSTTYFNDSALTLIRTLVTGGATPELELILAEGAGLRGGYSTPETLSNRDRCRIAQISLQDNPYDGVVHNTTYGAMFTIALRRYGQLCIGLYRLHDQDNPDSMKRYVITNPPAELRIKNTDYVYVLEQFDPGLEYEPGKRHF

In the first series the test system is Nippostrongylus brasiliensis. Description: In vitro assay 2: Nippostrongylus brasiliensis (NIPOBR), acetylcholine esterase readout. To be noted: adult worms, 1 μg/ml (1 ppm), read-out: activity (reduction of AChE compared to negative control). On the procedure:
In Vitro Assay 2: Nippostronqylus Brasiliensis (NIPOBR)
Adult Nippostrongylus brasiliensis were washed with saline buffer containing 100 U/ml penicillin, 0.1 mg/ml streptomycin and 2.5 μg/ml amphotericin B. Test compounds were dissolved in DMSO and worms were incubated in medium in a final concentration of 10 μg/ml (10 ppm) respectively 1 μg/ml (1 ppm). An aliquot of the medium was used to determine the acetylcholine esterase activity in comparison to a negative control. The principle of measuring acetylcholine esterase as readout for anthelmintic activity was described in Rapson et al (1986) and Rapson et al (1987).
As to `Cc1nn2c(C3CC3)c(C(=O)N[C@H]3CCOc4ccccc43)cnc2c1-c1cccc(Cl)c1Cl` [Example 473], the inhibition at 1 µg/mL was more than 80%.

Take `Cc1nn2c(C(C)C)c(C(=O)N[C@H]3CCOc4ccccc43)cnc2c1-c1cc(Cl)cc(C(F)(F)F)c1` [Example 240]: the inhibition at 1 µg/mL is more than 80%.

Consider `Cc1nn2c(C(C)C)c(C(=O)N[C@H]3CCOc4ccccc43)cnc2c1-c1c(Cl)ccc(F)c1F` [Example 258], for which the inhibition at 1 µg/mL was more than 80%.

For the molecule `Cc1nn2c(C(C)C)c(C(=O)N[C@H]3CCOc4ccccc43)cnc2c1-c1cccc(F)c1F` [Example 136], the inhibition at 1 µg/mL is more than 80%.

As for `Cc1nn2c(C(C)C)c(C(=O)N[C@H]3CCc4ccccc43)cnc2c1-c1cc(Cl)cc(Cl)c1F` [Example 261], the inhibition at 1 µg/mL is more than 80%.

Staying with this series, now noted: adult worms, 10 μg/ml (10 ppm), read-out: activity (reduction of AChE compared to negative control).
`Cc1nn2c(C3CC3)c(C(=O)N[C@H]3CCOc4ccccc43)cnc2c1-c1cccc(Cl)c1Cl` [Example 473]: the inhibition at 10 µg/mL was more than 80%.

Regarding `Cc1nn2c(C(C)C)c(C(=O)N[C@H]3CCOc4ccccc43)cnc2c1-c1cc(Cl)cc(C(F)(F)F)c1` [Example 240], the inhibition at 10 µg/mL was more than 80%.

With `Cc1nn2c(C(C)C)c(C(=O)N[C@H]3CCOc4ccccc43)cnc2c1-c1c(Cl)ccc(F)c1F` [Example 258], the inhibition at 10 µg/mL was more than 80%.

For the molecule `Cc1nn2c(C(C)C)c(C(=O)N[C@H]3CCOc4ccccc43)cnc2c1-c1cccc(F)c1F` [Example 136], the inhibition at 10 µg/mL was more than 80%.

With `Cc1nn2c(C(C)C)c(C(=O)N[C@H]3CCc4ccccc43)cnc2c1-c1cc(Cl)cc(Cl)c1F` [Example 261], the inhibition at 10 µg/mL is more than 80%.

The subject of the next series is Dirofilaria immitis microfilariae. Description: In vitro assay 3: Dirofilaria immitis microfilariae (DIROIM L1), motility. As to conditions: 72 h, reduction of motility vs negative control, 72 h incubation.
Turning to `Cc1nn2c(C3CC3)c(C(=O)N[C@H]3CCOc4ccccc43)cnc2c1-c1cccc(Cl)c1Cl` [Example 473], the EC50 was less than 0.1 µg/mL.

In turn, `Cc1nn2c(C(C)C)c(C(=O)N[C@H]3CCOc4ccccc43)cnc2c1-c1cc(Cl)cc(C(F)(F)F)c1` [Example 240] showed a concentration for a half-maximal effect (EC50) of less than 1 µg/mL.

The molecule `Cc1nn2c(C(C)C)c(C(=O)N[C@H]3CCOc4ccccc43)cnc2c1-c1c(Cl)ccc(F)c1F` [Example 258] gave an EC50 of less than 1 µg/mL.

As to `Cc1nn2c(C(C)C)c(C(=O)N[C@H]3CCOc4ccccc43)cnc2c1-c1cccc(F)c1F` [Example 136], the concentration giving a half-maximal response (EC50) is less than 0.1 µg/mL.

`Cc1nn2c(C(C)C)c(C(=O)N[C@H]3CCc4ccccc43)cnc2c1-c1cc(Cl)cc(Cl)c1F` [Example 261]: the EC50 is less than 0.1 µg/mL.

For the next series, the system named is Dirofilaria immitis third-stage larvae. Description: In vitro assay 4: Dirofilaria immitis (DIROIM L4), motility of larvae. As to conditions: 72 h.
`Cc1nn2c(C3CC3)c(C(=O)N[C@H]3CCOc4ccccc43)cnc2c1-c1cccc(Cl)c1Cl` [Example 473]: the EC50 is less than 0.1 µg/mL.

For the molecule `Cc1nn2c(C(C)C)c(C(=O)N[C@H]3CCOc4ccccc43)cnc2c1-c1c(Cl)ccc(F)c1F` [Example 258], the EC50 is less than 0.1 µg/mL.

Consider `Cc1nn2c(C(C)C)c(C(=O)N[C@H]3CCOc4ccccc43)cnc2c1-c1cccc(F)c1F` [Example 136], for which the EC50 is less than 0.1 µg/mL.

`Cc1nn2c(C(C)C)c(C(=O)N[C@H]3CCc4ccccc43)cnc2c1-c1cc(Cl)cc(Cl)c1F` [Example 261]: the concentration giving a half-maximal response (EC50) was less than 0.1 µg/mL.

In the next series the test system is Cooperia curticei. Description: In vitro assay 5: Cooperia curticei (COOPCU), larval mortality. To be noted: 120 h, read-out: activity (percentage of larval mortality).
Description: In Vitro Assay 5: Cooperia curticei (COOPCU)
Solvent: Dimethyl Sulfoxide
Approximately 40 nematode larvae (Cooperia curticei) are transferred into a test tube containing the compound solution.
After 5 days percentage of larval mortality is recorded. 100% efficacy means all larvae are killed; 0% efficacy means no larvae are killed.
Take `Cc1nn2c(C3CC3)c(C(=O)N[C@H]3CCOc4ccccc43)cnc2c1-c1cccc(Cl)c1Cl` [Example 473]: the mortality at 20 ppm was determined as 90%.

With `Cc1nn2c(C(C)C)c(C(=O)N[C@H]3CCOc4ccccc43)cnc2c1-c1cc(Cl)cc(C(F)(F)F)c1` [Example 240], the mortality at 20 ppm is 90%.

Regarding `Cc1nn2c(C(C)C)c(C(=O)N[C@H]3CCc4ccccc43)cnc2c1-c1cc(Cl)cc(Cl)c1F` [Example 261], the mortality at 20 ppm stood at 80%.

The next series concerns Litomosoides sigmodontis third-stage larvae. Description: In vitro assay 7: Litomosoides sigmodontis L3 (LTMOSI), motility. To be noted: 72 h, reduction of motility vs negative control, 72 h incubation.
In turn, `Cc1nn2c(C3CC3)c(C(=O)N[C@H]3CCOc4ccccc43)cnc2c1-c1cccc(Cl)c1Cl` [Example 473] had an EC50 of less than 0.1 µg/mL.

As for `Cc1nn2c(C(C)C)c(C(=O)N[C@H]3CCOc4ccccc43)cnc2c1-c1c(Cl)ccc(F)c1F` [Example 258], the EC50 was less than 0.1 µg/mL.

For `Cc1nn2c(C(C)C)c(C(=O)N[C@H]3CCOc4ccccc43)cnc2c1-c1cccc(F)c1F` [Example 136], the EC50 was less than 0.1 µg/mL.

Test system in a further series: not listed separately
Description: log P by HPLC on reversed phase columns (Method L0; [a] acidic, [b] neutral range).
Settings: not given
On to `Cc1nn2c(C3CC3)c(C(=O)N[C@H]3CCOc4ccccc43)cnc2c1-c1cccc(Cl)c1Cl` [Example 473], for which the chromatographic logP is 4.07.

Molecule `Cc1nn2c(C(C)C)c(C(=O)N[C@H]3CCOc4ccccc43)cnc2c1-c1cc(Cl)cc(C(F)(F)F)c1` [Example 240] returned a chromatographic logP of 5.65.

`Cc1nn2c(C(C)C)c(C(=O)N[C@H]3CCOc4ccccc43)cnc2c1-c1c(Cl)ccc(F)c1F` [Example 258] showed a chromatographic logP of 4.46.

Turning to `Cc1nn2c(C(C)C)c(C(=O)N[C@H]3CCOc4ccccc43)cnc2c1-c1cccc(F)c1F` [Example 136], the chromatographic logP was determined as 4.34.

Regarding `Cc1nn2c(C(C)C)c(C(=O)N[C@H]3CCc4ccccc43)cnc2c1-c1cc(Cl)cc(Cl)c1F` [Example 261], the chromatographic logP amounted to 5.65.

A further series addresses C. elegans Slo-1a (Caenorhabditis elegans, UniProt Q95V25). Description: In vitro assay 1: C. elegans Slo-1a, action at a recombinant C. elegans CHO cell line (membrane potential measurement).
Settings: not given
Take `Cc1nn2c(C3CC3)c(C(=O)N[C@H]3CCOc4ccccc43)cnc2c1-c1cccc(Cl)c1Cl` [Example 473]: the EC50 is 0.501 nM.

For the molecule `Cc1nn2c(C(C)C)c(C(=O)N[C@H]3CCOc4ccccc43)cnc2c1-c1cc(Cl)cc(C(F)(F)F)c1` [Example 240], the EC50 was 5.01 nM.

Turning to `Cc1nn2c(C(C)C)c(C(=O)N[C@H]3CCOc4ccccc43)cnc2c1-c1c(Cl)ccc(F)c1F` [Example 258], the EC50 is 1.58 nM.

Consider `Cc1nn2c(C(C)C)c(C(=O)N[C@H]3CCOc4ccccc43)cnc2c1-c1cccc(F)c1F` [Example 136], for which the concentration giving a half-maximal response (EC50) was 6.31 nM.

Consider `Cc1nn2c(C(C)C)c(C(=O)N[C@H]3CCc4ccccc43)cnc2c1-c1cc(Cl)cc(Cl)c1F` [Example 261], for which the concentration giving a half-maximal response (EC50) is 1.58 nM.
